Measurements as given in patent publication US6521179B1, “Sterilization” (Biomedical Design, Inc., priority 1999, dated 2003).

Tests used:
[1] = system: Bacillus Subtilis (ATCC 9372)spores; assay: Sterilization of spores inoculated in cups with cross-linked porcine heart valve leaflets (Example 1); format: cell-based; conditions: EDC 25 mM, 50 mM and 70 mM, 100 mM ethanolamine, 20% isopropyl alcohol, HEPES pH 6.5, 40° C., after one day
Method: When porcine aortic roots that are fixed are employed, they are cross-linked according to the method described in U.S. Pat. No. 5,447,536 or glutaraldehyde-fixed or cross-linked or fixed with any other method used to preserve tissue. After fixation, the tissue is stored in 10 mM HEPES, 0.85% NaCl, 20% isopropyl alcohol, pH 7.4, at 4° C. The sterility tests described in the following examples are conducted in the presence of bovine pericardium or porcine heart valve tissue. After such tissue is inoculated with microorganisms for test purposes and then submitted to sterilization, the solution is filtered through a 0.45 micron filter attached to a funnel (filter funnel). The tissue is washed for 20 minutes in a reciprocating shaker in the presence of peptone water containing Tween 80 in order to extract all indigenous spores or microorganisms from the tissue. This solution is then filtered through the same respective filter. The filters are then rinsed with peptone water to eliminate residual chemicals on the membrane that may prevent growth of the organisms tested. The membrane filters are incubated on solid agar TSA plates (Millipore) at about 32° to 33° C., e.g. 32.5° C. All microbiological testing is performed in a biological laminar flow hood to prevent contamination. […]

spores Bacillus subtilis = assay: Sterilization efficacy of EDC with blocking agents, spores in glass ampoules (Example 3); format: cell-based; conditions: EDC in HEPES buffer containing 20% isopropyl alcohol, in the presence or absence of tissue
Method: EDC sterilization in HEPES buffer containing 20% isopropyl alcohol, carried out either in the presence or in the absence of tissue, leads to complete kill of the spores Bacillus subtilis. The following experiment was designed to test whether the sterilization efficacy of EDC remains substantially unaffected by the presence of […]. […] After 10 minutes, 10 mL of Solutions A, B, C, D, E and F containing 25 mM EDC were added, the ampoules were heat-sealed and placed at 40° C. After 24 hours, the solutions from the ampoules were filtered to recover the spores, the filters were washed with 0.1% peptone water, and these were incubated on TSA plates for up to 10 days at 32° C. to 33° C., after which the colonies were enumerated.

[2] = EDC sterilization of pretreated cross-linked porcine aortic root tissue without lower alkanol; conditions: tissue pretreated with acetic anhydride or a mixture of TRIS and isopropylamine; absence of a lower alkanol

CCN=C=NCCCN(C)C.Cl [EDC, 1-ethyl-3(3-dimethylaminopropyl) carbodiimide hydrochloride]
kill of spores [1]: complete kill
kill of spores (spores Bacillus subtilis): complete kill
sterilization of tissue samples [2]: effectively sterilized
